This is an account of results in patent publication US8283479B2, “CXCR2 inhibitors” (Sanofi-Aventis Deutschland GmbH, priority 2004, dated 2012).

SMILES strings stand for the structures.

The target of the test is T1, human CXCR2 (Homo sapiens, UniProt P25025).
T1 construct: expressed in transfected cells; host or cells: CHO-K1
T1 sequence (P25025 1-360): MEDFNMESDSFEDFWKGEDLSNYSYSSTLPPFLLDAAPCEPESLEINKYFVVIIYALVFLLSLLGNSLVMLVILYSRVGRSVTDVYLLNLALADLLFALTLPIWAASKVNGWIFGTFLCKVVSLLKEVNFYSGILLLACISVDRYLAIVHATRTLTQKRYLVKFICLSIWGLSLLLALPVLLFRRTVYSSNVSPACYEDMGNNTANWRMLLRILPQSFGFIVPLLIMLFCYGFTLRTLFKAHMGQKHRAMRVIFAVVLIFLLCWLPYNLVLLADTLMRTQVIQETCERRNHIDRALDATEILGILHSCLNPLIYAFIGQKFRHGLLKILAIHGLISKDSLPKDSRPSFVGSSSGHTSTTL
The test is described as follows: CXCR2 inhibition: calcium fluorescence assay (FLIPR). It is filed as cell-based. As to conditions: CHO-K1 cells stably transfected with human CXCR2 and Gα16; Fluo-4; % inhibition of calcium response to chemokine (10-100 nM). From the text:
Determination of CXCR2 Inhibition: Calcium Fluorescence Assay (FLIPR)
The assay is based on the detection of intracellular calcium changes detected by the selective, calcium-chelating dye, Fluo-4 (Molecular Probes). A large fluorescence intensity increase is observed upon calcium association with Fluo-4. The dye is delivered to the cell interior using an acetoxymethylester form of Fluo-4, where the intracellular esterase activity results in the charged species being released and trapped within the cytoplasm of the cell. […] By co-expressing the CXCR2 receptor and the promiscuous Gα16 protein, activation of this chemokine receptor is directed into this phospholipase C cascade resulting in intracellular calcium mobilization.
The CHO—K1 cells stably transfected with human CXCR2 and the promiscuous Gα16 protein were maintained in a log phase of growth at 37° C. and 5% CO2 in the following media: Iscove's, 10% FBS, 1× Penicillin-Streptomycin, 400 μg/mL G418 and 350 μg/mL Zeocin. Approximately 24-48 hours prior to the assay, 20,000-30,000 cells/well were plated onto a 96-well black/clear bottomed assay plate (Becton Dickinson) with a well volume of 180 μl. For dye-loading the culture medium was carefully removed and replaced by 100 μl/well dye solution (4 μM Fluo-4 in 135 mM NaCl, 5 mM KCl, 1 mM magnesium sulphate, 5 mM glucose, 20 mM Hepes, 2.5 mM probenecid; pH 7.4). Cells were incubated for 1 h at 37° C., and then washed 3× with buffer. After washing 90 μl buffer/well were left. Increasing concentrations of compound was added in 45 μl buffer (4× concentrated) followed by 10 min incubation at 37° C. Then the chemokine (10-100 nM) was applied in 45 μl buffer (4× concentrated) and the measurement performed for 2 min. The IC50 value of a compound was determined by calculation of % inhibition of total calcium response to the chemokine.
As for `CC(C)(NC(=O)c1ccc2ccccc2c1OCc1ccc2nonc2c1)C(=O)O` [Example 5, 2-{[1-(Benzo[1,2,5]oxadiazol-5-ylmethoxy)-naphthalene-2-carbonyl]-amino}-2-methyl-propionic acid], the IC50 amounted to 3210 nM.
The same measure for `CC(C)(NC(=O)c1cc(Br)c2ccccc2c1OCc1ccc(OC(F)(F)F)cc1)C(=O)O` [Example 42, 2-{[4-Bromo-1-(4-trifluoromethoxy-benzyloxy)-naphthalene-2-carbonyl]-amino}-2-methyl-propionic acid]: 972 nM; for `CCC(C)(NC(=O)c1ccc2ccccc2c1OCc1cc2ccccc2s1)C(=O)O` (centres unmarked) [Example 74, 2-{[1-(Benzo[b]thiophen-2-ylmethoxy)-naphthalene-2-carbonyl]-amino}-2-methyl-butyric acid]: 980 nM.
The same measure for `CCC(C)(NC(=O)c1ccc2ccccc2c1OCc1ccc(OC(F)(F)F)c(Cl)c1)C(=O)O` (centres unmarked) [Example 105, 2-{[1-(3-Chloro-4-trifluoromethoxy-benzyloxy)-naphthalene-2-carbonyl]-amino}-2-methyl-butyric acid]: 1620 nM.
Turning to `CC(NC(=O)c1ccc2ccccc2c1OCc1ccc(C(F)(F)F)cc1)C(=O)O` (centres unmarked) [Example 110, 2-{[1-(4-Trifluoromethyl-benzyloxy)-naphthalene-2-carbonyl]-amino}-propionic acid], the IC50 stood at 700 nM.
For `CC(C)(NC(=O)c1sc2ccccc2c1OCc1ccc(C(F)(F)F)nc1)C(=O)O` [Example 120, 2-Methyl-2-{[3-(6-trifluoromethyl-pyridin-3-ylmethoxy)-benzo[b]thiophene-2-carbonyl]-amino}-propionic acid] the value was 4440 nM; for `O=C(NC1(C(=O)O)CCCC1)c1ccc2ccccc2c1OCc1ccc(C(F)(F)F)cc1` [Example 127, 1-{[1-(4-Trifluoromethyl-benzyloxy)-naphthalene-2-carbonyl]-amino}-cyclopentanecarboxylic acid], 996 nM.
For `CC(C)C(C)(NC(=O)c1sc2ccccc2c1OCc1ccc(C(F)(F)F)cc1)C(=O)O` (centres unmarked) [Example 131, 2,3-Dimethyl-2-{[3-(4-trifluoromethyl-benzyloxy)-benzo[b]thiophene-2-carbonyl]-amino}-butyric acid] the value was 200 nM.

The term IC50 denotes the concentration needed to halve the response being measured.
